Measured values reported in patent publication US4778797A, “Organo-silicon compounds, process for the manufacture of same, and anti-tumor agent comprising the compound” (Sanwa Kagaku Kenkyusho Co., Ltd., priority 1984, dated 1988).
Values after ≈ are worked out from the molar mass of the structure shown. Read-outs that look alike come from different tables or passages of the source.

How the values were obtained:
KB cells = experiment: Suppression of KB cell proliferation in vitro; format: cell-based; settings: Homo sapiens, 72 h, 3 days exposure, Trypan Blue dye-exclusion, read-out: KB IC50 (50% inhibition density to tumor cell proliferation)
Procedure: In a cultivation device (5% CO2, 37° C.), KB cells (1×10^4 cells) were cultivated for 24 hours in a culture tube with 1 ml of Eagle culture medium added 10% ox serum, the used culture medium was thrown away to change with a fresh culture medium (0.9 ml), and then 0.1 ml of a similar culture fluid containing each testing compound prepared by the process as described in the Examples was added to cultivate the same for further 3 days. Thereafter, living cells were dyed with Tripan Blue and measured same through a dye-exclusion method.
A control was treated in a manner similar to the above, except that a culture fluid containing no compound of the invention was added.
50% inhibition density (IC50) to the tumor cell proliferation was decided through the tests between the testing group and the control group to obtain results as shown in following Table 1.

L-1210 leukemia = experiment: Anti-tumor action to L-1210 leukemia; format: in vivo, BDF1 female mice; settings: Mus musculus, L1210, oral; for ILS at 250 mg/kg/day: 250 mg/kg/day × 3 (1st, 5th, 9th day); for ILS at 500 mg/kg/day: 500 mg/kg/day × 3 (1st, 5th, 9th day)
Procedure: L-1210 leukemia cell (1×10^5 cells) was transplanted in a abdominal cavity of BDF1 female mice (20-21 g, age of about 5 weeks), and each of testing compounds was orally dosed in 250 mg/kg or 500 mg/kg at 1st, 5th and 9th day after the transplantation to check days of life of the mice. [formula]

Colon-38 carcinoma = experiment: Anti-tumor action to Colon-38 carcinoma; format: in vivo, BDF1 mice; settings: oral, tumor weight at 28th day
Procedure: 0.02 ml of 10(W/V)% cell suspension prepared from a solid cancer cell (Colon-38 carcinoma) were transplanted under skin of BDF1 mice (20-21 g, age of about 5 weeks), and each of testing compounds was orally dosed to the mice at 1st, 5th and 9th day after the transplantation. A major and minor axes of the cancerous tumor were measured at 11th, 14th, 21st, 25th and 28th day after the transplantation to calcurate volume of the tumor in accordance with the following.
At 28th day from the transplantation, the mice were killed and each of the cancerous tumors was extracted to measure its weight and to determine an inhibitation ratio in comparison with a non-treated control group.

B-16 melanoma = experiment: Anti-tumor action to B-16 melanoma; format: in vivo, BDF1 female mice; settings: oral, tumor weight at 21st day; for inhibition in vivo at 250 mg/kg/day: 250 mg/kg/day × 3
Excerpt: B-16 melanoma (1×10^5 cells) was transplanted under skin of BDF1 female mice (age of about 5 weeks), and each of testing compounds was orally dosed at 1st, 5th and 9th day after the transplantation. At 21st day after the transplantation, the mice were killed to measure a weight of the cancerous tumor and to finally determine an inhibition ratio.

Lewis lung carcinoma = experiment: Anti-tumor action to Lewis lung carcinoma (primary tumor weight and metastasis); format: in vivo, BDF1 mice; settings: Mus musculus, po, 504 h
Excerpt: Lewis lung carcinoma (1×10^5 cells) was transplanted under skin of right ear of BDF1 mice (age of about 5 weeks), and each of testing compounds was orally dosed 10 times from 1st to 10th day after the transplantation. At 21st day after the transplantation, the mice were killed to measure a weight of the primarly tumor and to extract a lung. The lung was fixed in a conventional manner to count a number of metastasis on cancerous cells with use of a stereomicroscope having a low magnification. An anti-tumor action of each compound was expressed with an inhibition in weight of the primarly tumor and an inhibition of the metastasis.

Acute toxicity = format: in vivo, CrJ/CDI female mice; settings: mouse, in vivo; oral gavage, suspended in 0.1% P-1570, female mice, 21 days observation
Procedure: Each of testing compounds suspended in 0.1% P-1570 was orally and forcedly dosed through a gastric probe to CrJ/CDI female mice (21 to 22 g, age of about 5 weeks). An identification number was given to each mouse, and a weighing and observation on general behavior were carried out just before the dosage and each day after the same. Each of died mice was subjected without delay to an autopsy to check the same, more particularly in detail on enterona. All of living mice were killed at 21st day from the dosage to carry out an autopsy for checking the same, more particularly on entrails.
An LD50 was calculated in accordance with the Leed and Munch's method.
A similar test was carried out on each controls of 1-[2-[(2-trimethylsilylethyl)thio]ethylcarbamoyl]-5-fluorouracil and 1-hexylcarbamoyl-5-fluorouracil (HCFU) which is one of exemplary anti-tumor agents.

MM-46 adenocarcinoma = experiment: Anti-tumor action to MM-46 adenocarcinoma; format: in vivo, C3H/He female mice; settings: oral, 250 mg/kg/day × 3 (1st, 5th, 9th day); days to death, testing vs control group
Excerpt: MM-46 adenocarcinoma (1×10^6 cells) was transplanted under skin of C3H/He female mice (age of about 5 weeks), and each of testing compounds was orally dosed at 1st, 5th and 9th day after the transplantation to check days of life on the mice.
T: days to death on testing group, and
C: days to death on control group.

[1] = Mus musculus, B16, 504 h, 300 mg/kg/day × 3, read-out: B-16 melanoma Inhibition ratio
[2] = 13.5 mg/kg/day × 10 + Amputation, 21st day, read-out: Inhibition Ratio weight LLC
[3] = 13.5 mg/kg/day × 10 + Amputation, lung, 21st day, printed in parentheses, read-out: Inhibition Ratio metastasis
[4] = 27 mg/kg/day × 10 + Amputation, 21st day, read-out: Inhibition Ratio weight LLC
[5] = 27 mg/kg/day × 10 + Amputation, lung, 21st day, printed in parentheses, read-out: Inhibition Ratio metastasis
[6] = 27 mg/kg/day × 10, 21st day, read-out: Inhibition Ratio weight LLC
[7] = 27 mg/kg/day × 10, lung, 21st day, read-out: Inhibition Ratio metastasis
[8] = 54 mg/kg/day × 10, 21st day, read-out: Inhibition Ratio weight LLC
[9] = 54 mg/kg/day × 10, lung, 21st day, read-out: Inhibition Ratio metastasis
[10] = Mus musculus, B16, 504 h, read-out: B-16 melanoma Inhibition ratio

Row | Structure (SMILES) | IC50 (KB cells) [mg/L] | ILS at 250 mg/kg/day (L-1210 leukemia; read-out: L-1210 ILS) [%] | ILS at 250 mg/kg/day (L-1210 leukemia; read-out: L-1210 Judgement) [%] | ILS at 500 mg/kg/day (L-1210 leukemia; read-out: L-1210 ILS) [%] | ILS at 500 mg/kg/day (L-1210 leukemia; read-out: L-1210 Judgement) [%] | inhibition in vivo at 300 mg/kg/day (B-16 melanoma; [1]) [%] | LD50 at 504 h (Acute toxicity) [mg/kg] | inhibition in vivo at 13.5 mg/kg/day (Lewis lung carcinoma; [2]) [%] | inhibition in vivo at 13.5 mg/kg/day (Lewis lung carcinoma; [3]) [%] | inhibition in vivo at 27 mg/kg/day (Lewis lung carcinoma; [4]) [%] | inhibition in vivo at 27 mg/kg/day (Lewis lung carcinoma; [5]) [%] | inhibition in vivo at 27 mg/kg/day (Lewis lung carcinoma; [6]) [%] | inhibition in vivo at 27 mg/kg/day (Lewis lung carcinoma; [7]) [%] | inhibition in vivo at 54 mg/kg/day (Lewis lung carcinoma; [8]) [%] | inhibition in vivo at 54 mg/kg/day (Lewis lung carcinoma; [9]) [%] | inhibition in vivo at 250 mg/kg/day (B-16 melanoma; [10]) [%] | other results
1 | CC[Si](CC)(CC)CCSCCNC(=O)n1cc(F)c(=O)[nH]c1=O [Example 2, 5-Fluoro-3,4-dihydro-2,4-dioxo-N-[2-[[(2-triethylsilyl)ethyl]thio]ethyl]-1(2H)-pyrimidinecarboxamide] | 13 (≈ 34.6 µM) | 19 | < 25 | 96 | 50 to 100 | 47.2 | 1540 |  |  |  |  |  |  |  |  |  | inhibition in vivo at 300 mg/kg/day (Colon-38 carcinoma; Mus musculus, 672 h, 300 mg/kg/day × 3, read-out: colon-38 Inhibition ratio): 71.9%; inhibition in vivo at 14 mg/kg/day (Lewis lung carcinoma; 14 mg/kg/day × 10, 21st day, read-out: Inhibition Ratio weight LLC): 0%; inhibition in vivo at 14 mg/kg/day (Lewis lung carcinoma; 14 mg/kg/day × 10, lung, 21st day, read-out: Inhibition Ratio metastasis): 45.2%
2 | CC(C)[Si](C)(C)CCSCCNC(=O)n1cc(F)c(=O)[nH]c1=O [Example 5, 5-Fluoro-3,4-dihydro-N-[2-[[2-(isopropyldimethylsilyl)ethyl]thio]ethyl]-2,4-dioxo-1(2H)-pyrimidinecarboxamide] | 4 (≈ 11.1 µM) | 51 | 25 to 50 | 106 | ≥ 100 |  |  | 34.7 | 15.4 | 35.8 | > 39.5 | 7.1 | 78.4 | 34.9 | 83 |  | colon-38 Inhibition ratio (Colon-38 carcinoma; 289 mg/kg/day × 3): 89.8%; MM-46 adenocarcinoma T/C × 100 (MM-46 adenocarcinoma): 162%; B-16 melanoma Inhibition ratio (B-16 melanoma; 300 mg/kg/day × 3): 79.7%; inhibition in vivo at 13.5 mg/kg/day (Lewis lung carcinoma; 13.5 mg/kg/day × 10, 21st day, read-out: Inhibition Ratio weight LLC): 0%; inhibition in vivo at 13.5 mg/kg/day (Lewis lung carcinoma; 13.5 mg/kg/day × 10, lung, 21st day, read-out: Inhibition Ratio metastasis): 19.3%
3 | CCCC[Si](C)(C)CCSCCNC(=O)n1cc(F)c(=O)[nH]c1=O [Example 6, N-[2-[[2-(Butyldimethylsilyl)ethyl]thio]ethyl]-5-fluoro-3,4-dihydro-2,4-dioxo-1(2H)-pyrimidinecarboxamide] | 12 (≈ 32 µM) | 35 | 25 to 50 | 73 | 50 to 100 | 53.5 |  | 37.3 | 18.3 | 30.9 | 23.1 | 39.6 | 92.6 | 38 | 95.1 |  | colon-38 Inhibition ratio (Colon-38 carcinoma; 300 mg/kg/day × 3): 81.2%
4 | C[Si](C)(C)CCSCCCNC(=O)n1cc(F)c(=O)[nH]c1=O [Example 8, 5-Fluoro-3,4-dihydro-2,4-dioxo-N-[3-[[2-(trimethylsilyl)ethyl]thio]propyl]-1-(2H)-pyrimidinecarboxamide] | 7 (≈ 20.1 µM) | 27 | 25 to 50 | 70 | 50 to 100 |  | 1360 |  |  |  |  |  |  |  |  | 4.3 | inhibition in vivo at 278 mg/kg/day (Colon-38 carcinoma; Mus musculus, 672 h, 278 mg/kg/day × 3, read-out: colon-38 Inhibition ratio): 78%; inhibition in vivo at 13 mg/kg/day (Lewis lung carcinoma; 13 mg/kg/day × 10 + Amputation, 21st day, read-out: Inhibition Ratio weight LLC): 33.3%; inhibition in vivo at 13 mg/kg/day (Lewis lung carcinoma; 13 mg/kg/day × 10 + Amputation, lung, 21st day, printed in parentheses, read-out: Inhibition Ratio metastasis): 18.4%; inhibition in vivo at 13 mg/kg/day (Lewis lung carcinoma; 13 mg/kg/day × 10, 21st day, read-out: Inhibition Ratio weight LLC): 0%; inhibition in vivo at 13 mg/kg/day (Lewis lung carcinoma; 13 mg/kg/day × 10, lung, 21st day, read-out: Inhibition Ratio metastasis): 53%; inhibition in vivo at 26 mg/kg/day (Lewis lung carcinoma; 26 mg/kg/day × 10 + Amputation, 21st day, read-out: Inhibition Ratio weight LLC): 64.9%; inhibition in vivo at 26 mg/kg/day (Lewis lung carcinoma; 26 mg/kg/day × 10 + Amputation, lung, 21st day, printed in parentheses, read-out: Inhibition Ratio metastasis): 33.6%; inhibition in vivo at 26 mg/kg/day (Lewis lung carcinoma; 26 mg/kg/day × 10, 21st day, read-out: Inhibition Ratio weight LLC): 26.2%; inhibition in vivo at 26 mg/kg/day (Lewis lung carcinoma; 26 mg/kg/day × 10, lung, 21st day, read-out: Inhibition Ratio metastasis): 92.5%
5 | C[Si](C)(C)CCCSCCCNC(=O)n1cc(F)c(=O)[nH]c1=O [Example 10, 5-Fluoro-3,4-dihydro-2,4-dioxo-N-[3-[[3-(trimethylsilyl)propyl]thio]propyl]-1(2H)-pyrimidinecarboxamide] | 10 (≈ 27.7 µM) | 49 | 25 to 50 | 111 | ≥ 100 |  | 2170 |  |  |  |  |  |  |  |  | 15.2 | inhibition in vivo at 289 mg/kg/day (Colon-38 carcinoma; Mus musculus, 672 h, 289 mg/kg/day × 3, read-out: colon-38 Inhibition ratio): 89.5%; inhibition in vivo at 125 mg/kg/day (B-16 melanoma; Mus musculus, B16, 504 h, 125 mg/kg/day × 3, read-out: B-16 melanoma Inhibition ratio): 38.1%
